Among the data in patent US11596639B2, “Substituted indole Mcl-1 inhibitors” (Vanderbilt University, priority 2016, dated 2023) are GI50 and Ki values, retold here.

Molecules are shown by their SMILES. Bounds are passed on as bounds.

For test [1], the system named is H929 human cancer cell lines. The test can be described thus: Cellular viability / proliferation (Cell TiterGlo, 72 h). The format is cell-based. The settings on record: Homo sapiens, NCI-H929, 72 h, read-out: GI50 on cellular proliferation of H929 human cancer cell lines, H929 cells, 72 h, Cell TiterGlo, 10% FBS. The method in brief:
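Cells were seeded at 1,000 cells/well in medium with 10% FBS and dosed 24 h later with a 2-fold serial dilution of compound (top concentration 50 μM, final DMSO <1%).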
On the technique in general: ATP-based viability assays read luminescence as a measure of living cells.

A further test concerns the target Mcl-1 (Homo sapiens (Human), UniProt Q07820). The test is described as follows: TR-FRET binding assay, FITC-Bak peptide and MBP-tagged Mcl-1. Particulars: read-out: Ki for Inhibition of Mcl-1 by TR-FRET assay. Here is the method:
Compounds are diluted in DMSO in a 16-point, semilog serial dilution scheme. […] The plate was mixed and incubated for 3 hours at room temperature. […] TR-FRET signal is plotted and IC50 and Ki values are calculated in the same manner as the fluorescence polarization anisotropy based competition assays.
In general terms: In TR-FRET formats the signal depends on donor and acceptor labels being close together.

Mcl-1, sequence (Q07820 172-327): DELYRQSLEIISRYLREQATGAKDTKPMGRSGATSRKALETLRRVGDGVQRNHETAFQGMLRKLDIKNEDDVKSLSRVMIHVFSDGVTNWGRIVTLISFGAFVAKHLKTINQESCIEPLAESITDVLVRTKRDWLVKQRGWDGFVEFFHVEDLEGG

With `Cc1cc(OCCCc2c3n(c4c(-c5c(C)nn(C)c5C)c(Cl)ccc24)[C@H](C)CN(c2cc(NCCN4CCCC4)cc4c(C(=O)O)cn(C)c24)C3=O)cc(C)c1Cl` [Example 486, (R)-7-(7-Chloro-10-(3-(4-chloro-3,5-dimethylphenoxy)propyl)-4-methyl-1-oxo-6-(1,3,5-trimethyl-1H-pyrazol-4-yl)-3,4-dihydropyrazino[1,2-a]indol-2(1H)-yl)-1-methyl-5-((2-(pyrrolidin-1-yl)ethyl)amino)-1H-indole-3-carboxylic acid], the GI50 in test [1] was 2900 nM. For the same compound, the Ki (usually a measure of affinity in units of concentration, obtained from inhibition or displacement) on Mcl-1 was 1.4 nM.
For `COCc1nc(-c2ccc3c(c2)c(N2C[C@@H](C)n4c(c(CCCOc5cc(C)c(Cl)c(C)c5)c5ccc(Cl)c(-c6c(C)nn(C)c6C)c54)C2=O)cn3C)nn1C` [Example 674, (R)-7-Chloro-10-(3-(4-chloro-3,5-dimethylphenoxy)propyl)-2-(5-(5-(methoxymethyl)-1-methyl-1H-1,2,4-triazol-3-yl)-1-methyl-1H-indol-3-yl)-4-methyl-6-(1,3,5-trimethyl-1H-pyrazol-4-yl)-3,4-dihydropyrazino[1,2-a]indol-1(2H)-one], the GI50 in test [1] is 210 nM. Also, the Ki at Mcl-1 turned out to be 2.1 nM.
Taken in the same sequence, the figures for `COCCn1c(C(=O)O)cc2cc(OC)cc(N3C[C@@H](C)n4c(c(CCCOc5cc(C)c(Cl)c(C)c5)c5ccc(Cl)c(-c6c(C)ncnc6C)c54)C3=O)c21` [Example 660, (R)-7-(7-chloro-10-(3-(4-chloro-3,5-dimethylphenoxy)propyl)-6-(4,6-dimethylpyrimidin-5-yl)-4-methyl-1-oxo-3,4-dihydropyrazino[1,2-a]indol-2(1H)-yl)-5-methoxy-1-(2-methoxyethyl)-1H-indole-2-carboxylic acid] were 330 nM and less than 0.2 nM.
On to `Cc1cc(OCCCc2c3n(c4c(-c5c(C)cc(OCc6ccccn6)cc5C)c(Cl)ccc24)[C@H](C)CN(c2cn(C)c4ccc(C(=O)O)cc24)C3=O)cc(C)c1Cl` [Example 497, (R)-3-(7-chloro-10-(3-(4-chloro-3,5-dimethylphenoxy)propyl)-6-(2,6-dimethyl-4-(pyridin-2-ylmethoxy)phenyl)-4-methyl-1-oxo-3,4-dihydropyrazino[1,2-a]indol-2(1H)-yl)-1-methyl-1H-indole-5-carboxylic acid], for which the GI50 in test [1] worked out at 1700 nM. In addition, at Mcl-1, the Ki was found to be 1.3 nM.
In the case of `Cc1cc(OCCCc2c3n(c4c(-c5c(C)cc(O)cc5C)c(Cl)ccc24)[C@H](C)CN(c2cn(C)c4ccc(C(=O)O)cc24)C3=O)cc(C)c1Cl` [Example 496, (R)-3-(7-chloro-10-(3-(4-chloro-3,5-dimethylphenoxy)propyl)-6-(4-hydroxy-2,6-dimethylphenyl)-4-methyl-1-oxo-3,4-dihydropyrazino[1,2-a]indol-2(1H)-yl)-1-methyl-1H-indole-5-carboxylic acid], the GI50 in test [1] was 1200 nM. The inhibitory constant (Ki) on Mcl-1 was 0.64 nM.
On to `Cc1cc(OCCCc2c3n(c4c(-c5c(C)nn(C)c5C)c(Cl)ccc24)[C@H](C)CN(c2cn(C)c4ccc(-c5nnc6ccccn56)cc24)C3=O)cc(C)c1Cl` [Example 675, (R)-2-(5-([1,2,4]Triazolo[4,3-a]pyridin-3-yl)-1-methyl-1H-indol-3-yl)-7-chloro-10-(3-(4-chloro-3,5-dimethylphenoxy)propyl)-4-methyl-6-(1,3,5-trimethyl-1H-pyrazol-4-yl)-3,4-dihydropyrazino[1,2-a]indol-1(2H)-one], for which, in test [1], the GI50 came to 4800 nM. Besides, on Mcl-1, the Ki was 28 nM.
For the compound `Cc1cc(OCCCc2c3n(c4c(-c5c(C)nn(C)c5C)c(Cl)ccc24)[C@H](C)CN(c2cc(OCc4ccccn4)cc4cc(C(=O)O)n(C)c24)C3=O)cc(C)c1Cl` [Example 481, (R)-7-(7-Chloro-10-(3-(4-chloro-3,5-dimethylphenoxy)propyl)-4-methyl-1-oxo-6-(1,3,5-trimethyl-1H-pyrazol-4-yl)-3,4-dihydropyrazino[1,2-a]indol-2(1H)-yl)-1-methyl-5-(pyridin-2-ylmethoxy)-1H-indole-2-carboxylic acid], in test [1], the GI50 was 240 nM. Also, at Mcl-1, the Ki was less than 0.2 nM.
